Test results as given in US20170151221A1, “PHARMACEUTICAL COMPOSITIONS COMPRISING CEFEPIME OR SULBACTAM” (priority 2014, published 2017).
Like-named read-outs stand apart in the source and are kept apart here.

Key:
[1] = system: A. baumannii 1363934 [OXA 51, OXA 23]; assay: MIC by agar dilution (Muller Hinton Agar, CLSI); type: cell-based; conditions: Acinetobacter baumannii
Procedure: (§1) The antibacterial activity of combinations according to the invention was investigated against various bacterial strains. In a typical study, minimum inhibitory concentrations (MIC) were determined using Muller Hinton Agar (MHA) (BD, USA) according to Clinical and Laboratory Standards Institute (CLSI) recommendations, (Clinical and Laboratory Standards Institute (CLSI), Performance Standards for Antimicrobial Susceptibility Testing, 20th Informational Supplement, M 100-S20, Volume 30, No. 1, 2010). In short, the inocula were adjusted to deliver about 10^4 colony forming units (CFU) per spot with a multipoint inoculator (Applied Quality Services, UK). The plates were pored with doubling concentration range of the test combinations according to invention containing MHA. The plates were inoculated and were incubated at 35° C. for 18 hours.

[2] = system: A. baumannii 1449880 [OXA 51, OXA 23]; assay: MIC by agar dilution (Muller Hinton Agar, CLSI); type: cell-based; conditions: Acinetobacter baumannii
Procedure: as §1

[3] = system: A. baumannii J 145 [OXA 51, OXA 24]; assay: MIC by agar dilution (Muller Hinton Agar, CLSI); type: cell-based; conditions: Acinetobacter baumannii
Procedure: as §1

[4] = system: A. baumannii NCTC 13302 [OXA 51, OXA 25]; assay: MIC by agar dilution (Muller Hinton Agar, CLSI); type: cell-based; conditions: Acinetobacter baumannii
Procedure: as §1

[5] = system: A. baumannii NCTC 13304 [OXA 51, OXA 27]; assay: MIC by agar dilution (Muller Hinton Agar, CLSI); type: cell-based; conditions: Acinetobacter baumannii
Procedure: as §1

[6] = system: A. baumannii S 8 [OXA 51, OXA 23]; assay: MIC by agar dilution (Muller Hinton Agar, CLSI); type: cell-based; conditions: Acinetobacter baumannii
Procedure: as §1

[7] = system: Acinetobacter baumannii NCTC 13301 producing Carbapenemase hydrolyzing OXA 23 enzyme; assay: Time kill study; type: cell-based; conditions: for Effect on bacterial count throughout the duration of the study (in words): cefepime, sulbactam, imipenem at 8 mcg/ml, compound of Formula (I) at 4 mcg/ml, alone or in combination
Procedure: (§2) The synergistic killing effect of the combinations according to invention was studied by performing typical time kill studies. Typically, freshly grown cultures were diluted to the required cell density (initial starting inoculum) in Cation adjusted Muller Hinton broth medium (BD, USA). The antibacterial agents at the required concentrations were added into the culture-containing medium either alone or in combination. The samples were incubated under shaking condition (120 rpm) at 37° C. Enumeration of viable bacterial count was undertaken, every 2 hour, by diluting in normal saline and plating on to the Tryptic Soya Agar plates (BD, USA). The plates were incubated for 24 hours to arrive at the viable bacterial count. […] The decrease of 1 Log CFU/ml, after administration of combination of present invention, in comparison to initial bacterial count corresponds to 90% killing of bacteria. Similarly, 2 Log CFU/ml reductions corresponds to 99% killing of bacteria and 3 Log CFU/ml reductions is equal to 99.9% killing of bacteria.
(§3) The assay without any antibacterial agent was taken as control.

[8] = system: Acinetobacter baumannii NCTC 13302 producing carbapenemase hydrolyzing OXA 25 enzyme; assay: Time kill study; type: cell-based; conditions: for Effect on bacterial count throughout the duration of the study (in words): cefepime, sulbactam, imipenem at 8 mcg/ml, compound of Formula (I) at 4 mcg/ml, alone or in combination
Procedure: as §2, §3

[9] = system: carbapenam hydrolyzing (CHDL) and oxacillinases (OXA) producing Acinetobactor strains; assay: Antibacterial activity, summary statements over Tables 1-3; type: cell-based, Acinetobacter baumannii; conditions: for Change of MIC values in the presence of compound of Formula (I) (in words): Table 1 strains, compound of Formula (I) at 4 or 8 mcg/ml; for Antibacterial effect against highly resistant strains of A. baumannii (in words): summary of Tables 1-3
Procedure: as §1, §2

[10] = agent alone, A. baumannii 1363934, read-out: MIC
[11] = agent alone, A. baumannii 1449880, read-out: MIC
[12] = agent alone, A. baumannii J 145, read-out: MIC
[13] = NCTC13302, agent alone, A. baumannii NCTC 13302, read-out: MIC
[14] = NCTC13304, agent alone, A. baumannii NCTC 13304, read-out: MIC
[15] = agent alone, A. baumannii S 8, read-out: MIC
[16] = 0 hours, agent alone at 8 mcg/ml
[17] = 2 hours, agent alone at 8 mcg/ml
[18] = 4 hours, agent alone at 8 mcg/ml
[19] = 6 hours, agent alone at 8 mcg/ml
[20] = 8 hours, agent alone at 8 mcg/ml
[21] = 0 hours, agent alone at 4 mcg/ml
[22] = 2 hours, agent alone at 4 mcg/ml
[23] = 4 hours, agent alone at 4 mcg/ml
[24] = 6 hours, agent alone at 4 mcg/ml
[25] = 8 hours, agent alone at 4 mcg/ml
[26] = read-out: MIC (mcg/ml) in presence of Compound of Formula (I) at 4 mcg/ml
[27] = read-out: MIC (mcg/ml) in presence of Compound of Formula (I) at 8 mcg/ml

| SMILES | MIC [1, 10] | MIC [2, 11] | MIC [3, 12] | MIC [4, 13] | MIC [5, 14] | MIC [6, 15] | Bacterial count (Log10 CFU/ml) [7, 16] | Bacterial count (Log10 CFU/ml) [7, 17] | Bacterial count (Log10 CFU/ml) [7, 18] | Bacterial count (Log10 CFU/ml) [7, 19] | Bacterial count (Log10 CFU/ml) [7, 20] | Effect on bacterial count throughout the duration of the study (in words) ([7]; 8 hours) | Bacterial count (Log10 CFU/ml) [8, 16] | Bacterial count (Log10 CFU/ml) [8, 17] | Bacterial count (Log10 CFU/ml) [8, 18] | Bacterial count (Log10 CFU/ml) [8, 19] | Bacterial count (Log10 CFU/ml) [8, 20] | Effect on bacterial count throughout the duration of the study (in words) ([8]; 8 hours) | Change of MIC values in the presence of compound of Formula (I) (in words) [9] | Antibacterial effect against highly resistant strains of A. baumannii (in words) [9] | also measured |
| --- | --- | --- | --- | --- | --- | --- | --- | --- | --- | --- | --- | --- | --- | --- | --- | --- | --- | --- | --- | --- | --- |
| CO/N=C(\C(=O)N[C@@H]1C(=O)N2C(C(=O)[O-])=C(C[N+]3(C)CCCC3)CS[C@H]12)c1csc(N)n1 [Cefepime] | > 32 µg/mL | > 32 µg/mL | 32 µg/mL | 32 µg/mL | 32 µg/mL | > 32 µg/mL | 6.32 Log10 CFU/ml | 8.26 Log10 CFU/ml | 8.06 Log10 CFU/ml | 8.26 Log10 CFU/ml | 8.13 Log10 CFU/ml | not effective to decrease the bacterial count | 6.30 Log10 CFU/ml | 7.740 Log10 CFU/ml | 7.929 Log10 CFU/ml | 7.662 Log10 CFU/ml | 7.56 Log10 CFU/ml | not effective to decrease the bacterial count | significantly decreased | ineffective | MIC ([1]; with Compound of Formula (I) at 4 mcg/ml, A. baumannii 1363934, read-out: MIC (mcg/ml) in presence of Compound of Formula (I) at 4 mcg/ml): 16 µg/mL; MIC ([1]; with Compound of Formula (I) at 8 mcg/ml, A. baumannii 1363934, read-out: MIC (mcg/ml) in presence of Compound of Formula (I) at 8 mcg/ml): 8 µg/mL; MIC ([2]; with Compound of Formula (I) at 4 mcg/ml, A. baumannii 1449880, read-out: MIC (mcg/ml) in presence of Compound of Formula (I) at 4 mcg/ml): 2 µg/mL; MIC ([2]; with Compound of Formula (I) at 8 mcg/ml, A. baumannii 1449880, read-out: MIC (mcg/ml) in presence of Compound of Formula (I) at 8 mcg/ml): 2 µg/mL; MIC ([3]; with Compound of Formula (I) at 4 mcg/ml, A. baumannii J 145, read-out: MIC (mcg/ml) in presence of Compound of Formula (I) at 4 mcg/ml): 16 µg/mL; MIC ([3]; with Compound of Formula (I) at 8 mcg/ml, A. baumannii J 145, read-out: MIC (mcg/ml) in presence of Compound of Formula (I) at 8 mcg/ml): 8 µg/mL; MIC ([4]; NCTC13302, with Compound of Formula (I) at 4 mcg/ml, A. baumannii NCTC 13302, read-out: MIC (mcg/ml) in presence of Compound of Formula (I) at 4 mcg/ml): 8 µg/mL; MIC ([4]; NCTC13302, with Compound of Formula (I) at 8 mcg/ml, A. baumannii NCTC 13302, read-out: MIC (mcg/ml) in presence of Compound of Formula (I) at 8 mcg/ml): 8 µg/mL; MIC ([5]; NCTC13304, with Compound of Formula (I) at 4 mcg/ml, A. baumannii NCTC 13304, read-out: MIC (mcg/ml) in presence of Compound of Formula (I) at 4 mcg/ml): 8 µg/mL; MIC ([5]; NCTC13304, with Compound of Formula (I) at 8 mcg/ml, A. baumannii NCTC 13304, read-out: MIC (mcg/ml) in presence of Compound of Formula (I) at 8 mcg/ml): 4 µg/mL; MIC ([6]; with Compound of Formula (I) at 4 mcg/ml, A. baumannii S 8, read-out: MIC (mcg/ml) in presence of Compound of Formula (I) at 4 mcg/ml): 8 µg/mL; MIC ([6]; with Compound of Formula (I) at 8 mcg/ml, A. baumannii S 8, read-out: MIC (mcg/ml) in presence of Compound of Formula (I) at 8 mcg/ml): 8 µg/mL |
| O=C(NNC(=O)[C@@H]1CC[C@@H]2CN1C(=O)N2OS(=O)(=O)O)[C@@H]1CCNC1 [Compound of Formula (I), trans-sulfuric acid mono-[2-(N′-[(R)-pyrrolidin-3-carbonyl]-hydrazinocarbonyl)-7-oxo-1,6-diaza-bicyclo[3.2.1]oct-6-yl] ester] | > 128 µg/mL | > 128 µg/mL | > 128 µg/mL | > 128 µg/mL | > 128 µg/mL | > 128 µg/mL | – | – | – | – | – | not effective to decrease the bacterial count | – | – | – | – | – | not effective to decrease the bacterial count | – | ineffective | Bacterial count (Log10 CFU/ml) [7, 21]: 6.32 Log10 CFU/ml; Bacterial count (Log10 CFU/ml) [7, 22]: 8.02 Log10 CFU/ml; Bacterial count (Log10 CFU/ml) [7, 23]: 8.36 Log10 CFU/ml; Bacterial count (Log10 CFU/ml) [7, 24]: 8.35 Log10 CFU/ml; Bacterial count (Log10 CFU/ml) [7, 25]: 8.39 Log10 CFU/ml; Bacterial count (Log10 CFU/ml) [8, 21]: 6.30 Log10 CFU/ml; Bacterial count (Log10 CFU/ml) [8, 22]: 7.903 Log10 CFU/ml; Bacterial count (Log10 CFU/ml) [8, 23]: 7.845 Log10 CFU/ml; Bacterial count (Log10 CFU/ml) [8, 24]: 7.875 Log10 CFU/ml; Bacterial count (Log10 CFU/ml) [8, 25]: 8.04 Log10 CFU/ml |
| C[C@@H](O)[C@H]1C(=O)N2C(C(=O)O)=C(SCCN=CN)C[C@H]12 [Imipenem] | > 32 µg/mL | 8 µg/mL | > 32 µg/mL | > 32 µg/mL | > 32 µg/mL | 16 µg/mL | 6.32 Log10 CFU/ml | 8.20 Log10 CFU/ml | 8.43 Log10 CFU/ml | 8.43 Log10 CFU/ml | 8.51 Log10 CFU/ml | – | 6.30 Log10 CFU/ml | 8.079 Log10 CFU/ml | 8.703 Log10 CFU/ml | 8.176 Log10 CFU/ml | 8.38 Log10 CFU/ml | – | – | – | – |
| CC1(C)[C@H](C(=O)O)N2C(=O)C[C@H]2S1(=O)=O [Sulbactam] | – | – | – | – | – | – | 6.32 Log10 CFU/ml | 7.27 Log10 CFU/ml | 7.65 Log10 CFU/ml | 7.74 Log10 CFU/ml | 7.81 Log10 CFU/ml | not effective to decrease the bacterial count | 6.30 Log10 CFU/ml | 7.39 Log10 CFU/ml | 7.69 Log10 CFU/ml | 7.34 Log10 CFU/ml | 7.34 Log10 CFU/ml | not effective to decrease the bacterial count | significantly decreased | ineffective | MIC ([1]; read-out: MIC (mcg/ml)): 16 µg/mL; MIC [1, 26]: 2 µg/mL; MIC [1, 27]: 2 µg/mL; MIC ([2]; read-out: MIC (mcg/ml)): 8 µg/mL; MIC [2, 26]: 0.5 µg/mL; MIC [2, 27]: 0.5 µg/mL; MIC ([3]; read-out: MIC (mcg/ml)): 16 µg/mL; MIC [3, 26]: 2 µg/mL; MIC [3, 27]: 2 µg/mL; MIC ([4]; NCTC13302, read-out: MIC (mcg/ml)): 16 µg/mL; MIC ([4]; NCTC13302, read-out: MIC (mcg/ml) in presence of Compound of Formula (I) at 4 mcg/ml): 2 µg/mL; MIC ([4]; NCTC13302, read-out: MIC (mcg/ml) in presence of Compound of Formula (I) at 8 mcg/ml): 1 µg/mL; MIC ([5]; NCTC13304, read-out: MIC (mcg/ml)): 16 µg/mL; MIC ([5]; NCTC13304, read-out: MIC (mcg/ml) in presence of Compound of Formula (I) at 4 mcg/ml): 2 µg/mL; MIC ([5]; NCTC13304, read-out: MIC (mcg/ml) in presence of Compound of Formula (I) at 8 mcg/ml): 2 µg/mL; MIC ([6]; read-out: MIC (mcg/ml)): 16 µg/mL; MIC [6, 26]: 8 µg/mL; MIC [6, 27]: 4 µg/mL |
